Reference: patent US6339093B1, “Isoquinoline derivatives” (Hoffmann-la Roche Inc., priority 1999, dated 2002)
Counter-ions that a name gives are not always drawn.

Columns and labels:
NMDA receptor = molecular target: T1, NMDA receptor (Rattus norvegicus, UniProt P35439+Q00960); assay: 3H-[R-(R*,S*)]-a-(4-Hydroxy-phenyl)-b-methyl-4-(phenyl-methyl)-1-piperidine propanol binding (displacement, rat brain membranes); settings: displacement of 5 nM 3H-radioligand, rat whole brain membranes minus cerebellum and medulla oblongata, 2 hours at 4° C.
T1 construct: Membranes were prepared by homogenization of the whole brain minus cerebellum and medulla oblongata; from tissue; host or cells: rat whole brain minus cerebellum and medulla oblongata, membranes
Experimental: ^3H-[R-(R*,S*)]-a-(4-Hydroxy-phenyl)-b-methyl-4-(phenyl-methyl)-1-piperidine propanol binding
Male Füllinsdorf albino rats weighing between 150-200 g were used. Membranes were prepared by homogenization of the whole brain minus cerebellum and medulla oblongata with a Polytron (10.000 rpm, 30 seconds), in 25 volume of a cold Tris-HCl 50 mM, EDTA 10 mM, pH 7.1 buffer. The homogenate was centrifuged at 48,000 g for 10 minutes at 4° C. The pellet was resuspended using the Polytron in the same volume of buffer and the homogenate was incubated at 37° C. for 10 minutes. After centrifugation the pellet was homogenized in the same buffer and frozen at −80° C. for at least 16 hours but not more than 10 days. For the binding assay the homogenate was thawed at 37° C., centrifuged and the pellet was washed three times as above in a Tris-HCl 5 mM, pH 7.5 cold buffer. The final pellet was resuspended in the same buffer and used at a final concentration of […] of protein/ml.
[R-(R*,S*)]-α-(4-Hydroxy-phenyl)-β-methyl-4-(phenyl-methyl)-1-piperidine propanol is a compound known to bind selectively to the NMDA receptor (J. Neurochem., Vol. 70., No. 5, 1998). ^3H-[R-(R*,S*)]-α-(4-Hydroxy-phenyl)-β-methyl-4-(phenyl-methyl)-1-piperidine propanol binding experiments were performed using a Tris-HCl 50 mM, pH 7.4 buffer. For displacement experiments 5 nM of 3H-[R-(R*,S*)]-a-(4-Hydroxy-phenyl)-b-methyl-4-(phenyl-methyl)-1-piperidine propanol were used and non specific binding was measured using 10 mM of tetrahydroisoquinoline and usually it accounts for 10% of the total. The incubation time was 2 hours at 4° C. and the assay was stopped by filtration on Whatmann GF/B glass fiber filters (Unifilter-96, Packard, Zürich, Switzerland). The filters were washed 5 times with cold buffer. The radioactivity on the filter was counted on a Packard Top-count microplate scintillation counter after addition of […] of microscint 40 (Canberra Packard S.A., Zürich, Switzerland).
The effects of compounds were measured using a minimum of 8 concentrations and repeated at least once. The pooled normalized values were analyzed using a non-linear regression calculation program which provide IC50 with their relative upper and lower 95% confidence limits.

T1 sequence (Q00960 27-1482, other chains not shown): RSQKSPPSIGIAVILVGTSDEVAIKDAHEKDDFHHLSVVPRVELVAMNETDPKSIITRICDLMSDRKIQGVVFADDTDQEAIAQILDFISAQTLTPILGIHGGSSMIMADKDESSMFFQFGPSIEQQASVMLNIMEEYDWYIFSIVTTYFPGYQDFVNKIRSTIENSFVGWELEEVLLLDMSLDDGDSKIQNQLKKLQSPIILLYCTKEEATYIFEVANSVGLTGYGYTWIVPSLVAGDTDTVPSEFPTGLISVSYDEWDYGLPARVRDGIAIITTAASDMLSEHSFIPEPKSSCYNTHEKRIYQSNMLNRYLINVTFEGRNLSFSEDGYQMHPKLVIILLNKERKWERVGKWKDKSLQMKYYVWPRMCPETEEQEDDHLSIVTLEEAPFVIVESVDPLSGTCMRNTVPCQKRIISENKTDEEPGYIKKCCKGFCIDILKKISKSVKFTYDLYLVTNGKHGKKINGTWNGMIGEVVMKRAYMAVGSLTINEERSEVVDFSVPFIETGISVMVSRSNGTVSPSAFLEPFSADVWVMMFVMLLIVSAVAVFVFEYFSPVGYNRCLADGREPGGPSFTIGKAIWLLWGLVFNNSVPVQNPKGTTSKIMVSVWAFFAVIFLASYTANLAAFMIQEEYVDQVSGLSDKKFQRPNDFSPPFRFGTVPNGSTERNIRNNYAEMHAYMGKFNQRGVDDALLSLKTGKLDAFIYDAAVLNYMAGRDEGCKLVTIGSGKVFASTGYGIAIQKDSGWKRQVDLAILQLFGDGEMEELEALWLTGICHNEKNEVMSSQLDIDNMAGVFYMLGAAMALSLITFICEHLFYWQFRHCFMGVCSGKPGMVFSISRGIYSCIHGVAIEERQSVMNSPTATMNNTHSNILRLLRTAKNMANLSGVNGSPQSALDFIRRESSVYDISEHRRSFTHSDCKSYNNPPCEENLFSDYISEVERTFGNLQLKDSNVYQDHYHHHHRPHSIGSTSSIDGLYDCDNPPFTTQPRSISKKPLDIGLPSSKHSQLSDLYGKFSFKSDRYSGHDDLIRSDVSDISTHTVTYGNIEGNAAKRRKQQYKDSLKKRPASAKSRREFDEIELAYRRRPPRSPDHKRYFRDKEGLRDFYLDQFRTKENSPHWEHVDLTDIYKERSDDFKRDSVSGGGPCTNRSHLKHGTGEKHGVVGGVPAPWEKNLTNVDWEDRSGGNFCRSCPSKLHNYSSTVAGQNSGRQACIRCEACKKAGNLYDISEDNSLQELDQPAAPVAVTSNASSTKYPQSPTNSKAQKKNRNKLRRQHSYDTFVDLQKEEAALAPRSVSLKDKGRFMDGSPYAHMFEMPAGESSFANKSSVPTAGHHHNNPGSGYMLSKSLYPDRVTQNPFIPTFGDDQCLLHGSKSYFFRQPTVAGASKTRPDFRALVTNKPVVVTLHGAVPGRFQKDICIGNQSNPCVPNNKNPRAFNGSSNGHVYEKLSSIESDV

SMILES | melting point [°C] | IC50 (NMDA receptor) [µM]
COc1cccc2c(N3CCc4ccccc4C3)ccnc12.Cl | 240 | 
Cl.c1ccc2c(c1)CN(c1ccnc3ccccc13)C2 | 264 to 267 | 
Cl.c1ccc2c(c1)CCN(c1ccnc3ccccc13)C2 | 200 | 
OCCNc1cc(N2CCc3ccccc3C2)c2ccccc2n1 [Example 2, 2-[4-(3,4-Dihydro-1H-isoquinolin-2-yl)-quinolin-2-ylamino]-ethanol hydrochloride] |  | 0.058
Cl.O[C@@H]1CCN(c2cc(N3CCc4ccccc4C3)c3ccccc3n2)C1 [Example 4, (R)-1-[4-(3,4-Dihydro-1H-isoquinolin-2-yl)-quinolin-2-yl]-pyrrolidin-3-ol hydrochloride] | 270 to 274 | 0.17
OC[C@H]1CCCN1c1cc(N2CCc3ccccc3C2)c2ccccc2n1 [Example 5, (R)-{1-[4-(3,4-Dihydro-1H-isoquinolin-2-yl)-quinolin-2-yl]-pyrrolidin-2-yl}-methanol] | 74 to 80 | 0.29
Cc1ccc2c(N3CCc4ccccc4C3)ccnc2c1.Cl [Example 13, 4-(3,4-Dihydro-1H-isoquinolin-2-yl)-7-methyl-quinoline hydrochloride] | 251 to 252 | 0.19
Clc1ccc2c(N3CCc4ccccc4C3)ccnc2c1 [Example 15, 7-Chloro-4-(3,4-dihydro-1H-isoquinolin-2-yl)-quinoline hydrochloride] |  | 0.32

Second part, the compound after the results:

melting point [°C] | IC50 (NMDA receptor) [µM] | SMILES
210 to 211 |  | Cc1cc(N2CCc3ccccc3C2)c2ccccc2n1.Cl
270 to 275 |  | Cl.Clc1ccc2c(c1)CN(c1ccnc3ccccc13)C2
 | 0.65 | Fc1cccc2c(N3CCc4ccccc4C3)ccnc12 [Example 16, 4-(3,4-Dihydro-1H-isoquinolin-2-yl)-8-fluoro-quinoline hydrochloride]
 | 0.89 | Fc1ccc2nccc(N3CCc4ccccc4C3)c2c1 [Example 18, 4-(3,4-Dihydro-1H-isoquinolin-2-yl)-6-fluoro-quinoline hydrochloride]
